Patent US9708336B2, “Metallo-beta-lactamase inhibitors” (priority 2014, dated 2017)
Read-outs that look alike come from different tables or passages of the source.

Assays:
IMP-1 = IMP-1 (Serratia marcescens, UniProt P52699); assay: biochemical; assay type: biochemical; settings: read-out: IMP-1 IC50
[1] = tested on: Escherichia coli expressing NDM-1 (CLB30016); assay: Antibiotic potentiation activity: synergistic concentration (MITC95) with imipenem, OD600 growth; assay type: cell-based; settings: for Escherichia coli expressing NDM-1 (CLB 30016) MITC95: concentration giving 95% inhibition of bacterial growth
Method in brief: (§1)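 Bacteria were grown overnight on agar at 35 °C, diluted 1:100 from saline into 1.1× CAMHB, then given compound with or without imipenem (4 μg/ml in assay, optionally 1 μg/ml). Endpoint: absorbance at 22–24 h.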

[2] = tested on: Klebsiella pneumoniae expressing VIM-1 (IHMA599644); assay: as above; assay type: cell-based; settings: for Klebsiella pneumoniae expressing VIM-1 (IHMA 599644) MITC95: concentration giving 95% inhibition of bacterial growth
Method in brief: as §1

[3] = tested on: Serratia marcescens expressing IMP-1 (CL5741); assay: as above; assay type: cell-based; settings: for Serratia marcescens expressing IMP-1 (CL5741) MITC95: concentration giving 95% inhibition of bacterial growth
Method in brief: as §1

VIM-1 = VIM-1 (Pseudomonas aeruginosa (strain ATCC 15692 / DSM 22644 / CIP 104116 / JCM 14847 / LMG 12228 / 1C / PRS 101 / PAO1), UniProt A0A0F7KYQ8); assay: Enzyme activity: determination of IC50, fluorescence assay with CCF2-FA substrate (VIM-1); assay type: biochemical
NDM-1 = NDM-1 (Klebsiella pneumoniae, UniProt C7C422); assay: biochemical; assay type: biochemical; settings: read-out: NDM-1 IC50
[4] = fluorescence assay with CCF2-FA substrate
[5] = CLB30016 (NDM-1), 95% inhibition of bacterial growth
[6] = IHMA599644 (VIM-1), 95% inhibition of bacterial growth
[7] = CL5741 (IMP-1), 95% inhibition of bacterial growth
[8] = IMP-1 enzyme, CCF2-FA fluorescence assay
[9] = Escherichia coli expressing NDM-1 (CLB30016), 95% growth inhibition
[10] = Klebsiella pneumoniae expressing VIM-1 (IHMA599644), 95% growth inhibition
[11] = Serratia marcescens expressing IMP-1 (CL5741), 95% growth inhibition
[12] = VIM-1 enzyme, CCF2-FA fluorescence assay, read-out: VIM-1 IC50
[13] = NDM-1 enzyme, CCF2-FA fluorescence assay
[14] = fluorescence assay with CCF2-FA substrate, read-out: VIM-1 IC50
[15] = IMP-1 enzyme, CCF2-FA substrate
[16] = (CLB30016, NDM-1), 95% growth inhibition
[17] = Klebsiella pneumoniae IHMA599644 (VIM-1), 95% growth inhibition
[18] = Serratia marcescens CL5741 (IMP-1), 95% growth inhibition
[19] = VIM-1 enzyme, CCF2-FA substrate, read-out: VIM-1 IC50
[20] = NDM-1 enzyme, CCF2-FA substrate

Sequence of NDM-1 (C7C422 whole entry, looked up, species assumed): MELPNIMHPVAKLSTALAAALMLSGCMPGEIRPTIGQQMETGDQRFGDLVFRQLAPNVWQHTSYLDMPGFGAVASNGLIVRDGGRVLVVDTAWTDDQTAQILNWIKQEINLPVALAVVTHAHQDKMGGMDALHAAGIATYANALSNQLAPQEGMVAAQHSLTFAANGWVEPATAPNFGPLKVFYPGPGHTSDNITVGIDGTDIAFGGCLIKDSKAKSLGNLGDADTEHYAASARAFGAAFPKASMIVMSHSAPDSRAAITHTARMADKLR
Sequence of IMP-1 (P52699 whole entry, looked up): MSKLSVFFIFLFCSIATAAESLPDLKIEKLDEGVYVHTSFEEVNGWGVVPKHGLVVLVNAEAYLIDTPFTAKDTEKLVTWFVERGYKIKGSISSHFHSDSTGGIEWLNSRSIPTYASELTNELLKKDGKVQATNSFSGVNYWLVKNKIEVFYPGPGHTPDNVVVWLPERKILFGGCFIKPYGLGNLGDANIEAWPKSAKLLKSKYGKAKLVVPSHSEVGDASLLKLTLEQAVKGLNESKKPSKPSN

| SMILES | IC50 (IMP-1; [4]) [nM] | IC50 (NDM-1; [4]) [nM] | IC50 (IMP-1; [8]) [nM] | Escherichia coli MITC95 [1, 9] [µM] | Klebsiella pneumoniae MITC95 [2, 10] [µM] | Serratia marcescens MITC95 [3, 11] [µM] | IC50 (VIM-1; [12]) [nM] | IC50 (NDM-1; [13]) [nM] | also measured |
| --- | --- | --- | --- | --- | --- | --- | --- | --- | --- |
| NCC1CCC(N2CC(c3ccc(-c4ccc(C(F)(F)F)c(S(N)(=O)=O)c4-c4nnn[nH]4)cc3)C2)CC1 (stereo not drawn) [Example 813, 4′-{1-[4-(aminomethyl)cyclohexyl]azetidin-3-yl}-2-(1H-tetrazol-5-yl)-4-(trifluoromethyl)biphenyl-3-sulfonamide] | 9.86 | 6.27 |  |  |  |  |  |  | Escherichia coli MITC95 [1, 5]: 6.25 µM; Klebsiella pneumoniae MITC95 [2, 6]: 100 µM; Serratia marcescens MITC95 [3, 7]: 6.25 µM; IC50 (VIM-1; VIM-1 IC50, fluorescence assay with CCF2-FA substrate): 20.6 nM |
| CC(CC(=O)O)NCc1ccc(-c2cccc(S(N)(=O)=O)c2-c2nnn[nH]2)cc1 (stereo not drawn) [Example 344, 3-({[3′-sulfamoyl-2′-(1H-tetrazol-5-yl)biphenyl-4-yl]methyl}amino)butanoic acid] |  |  | 242 | 2.344 | 100 | 4.688 | 585 | 32.8 |  |
| CC(O)C1CCN(c2ccnc(S(N)(=O)=O)c2-c2nnn[nH]2)CC1 (stereo not drawn) [Example 244, 4-[4-(1-hydroxyethyl)piperidin-1-yl]-3-(1H-tetrazol-5-yl)pyridine-2-sulfonamide] |  |  | 682 | 1.563 | 37.5 | 18.75 | 125 | 51.2 |  |
| NS(=O)(=O)c1c(C(F)(F)F)ccc(N2CCC(c3ccc(CO)cc3)CC2)c1-c1nn[nH]n1 [Example 450, 3-(4-(4-(hydroxymethyl)phenyl)piperidin-1-yl)-2-(2H-tetrazol-5-yl)-6-(trifluoromethyl)benzenesulfonamide] |  |  | 1.28 | 18.75 | 75 | 0.03125 | 1.8 | 1.62 |  |
| NS(=O)(=O)c1cccc(-c2ccc(CNC(CO)CO)cc2)c1-c1nnn[nH]1 [Example 374, 4′-({[2-hydroxy-1-(hydroxymethyl)ethyl]amino}methyl)-2-(1H-tetrazol-5-yl)biphenyl-3-sulfonamide] |  |  | 264 | 0.7813 | 37.5 | 3.125 | 277 | 16 |  |
| CS(=O)(=O)Nc1ccc(-c2ccc(Br)c(S(N)(=O)=O)c2-c2nn[nH]n2)cc1 [Example 270, 4-bromo-4′-(methylsulfonamido)-2-(2H-tetrazol-5-yl)-[1,1′-biphenyl]-3-sulfonamide] |  |  | 4.86 | 1.563 | 6.25 | 0.3906 | 1.68 | 2.56 |  |
| NS(=O)(=O)c1cccc(C2CCCCC2)c1-c1nnn[nH]1 [Example 151, 3-cyclohexyl-2-(1H-tetrazol-5-yl)benzenesulfonamide] | 31.8 | 1.25 |  |  |  |  |  |  | Escherichia coli expressing NDM-1 (CLB 30016) MITC95 [1]: 1.172 µM; Klebsiella pneumoniae expressing VIM-1 (IHMA 599644) MITC95 [2]: 37.5 µM; Serratia marcescens expressing IMP-1 (CL5741) MITC95 [3]: 1.563 µM; IC50 (VIM-1; [14]): 31.5 nM |
| NS(=O)(=O)c1nccc(NCCc2ccccc2)c1-c1nnn[nH]1 [Example 237, 4-[(2-phenylethyl)amino]-3-(1H-tetrazol-5-yl)pyridine-2-sulfonamide] | 581 | 102 |  |  |  |  |  |  | Escherichia coli expressing NDM-1 (CLB 30016) MITC95 [1]: 18.75 µM; Klebsiella pneumoniae expressing VIM-1 (IHMA 599644) MITC95 [2]: >200 µM; Serratia marcescens expressing IMP-1 (CL5741) MITC95 [3]: 125 µM; IC50 (VIM-1; [14]): 239 nM |
| NS(=O)(=O)c1c(C(F)(F)F)ccc(CC[C@H]2CC[C@H](N)CC2)c1-c1nn[nH]n1 [Example 431, 3-(2-((1r,4s)-4-aminocyclohexyl)ethyl)-2-(2H-tetrazol-5-yl)-6-(trifluoromethyl)benzenesulfonamide] |  |  | 3.75 | 2.563 | 1.531 | 0.125 | 0.432 | 17.9 |  |
| NS(=O)(=O)c1c(CCO)ccc(-c2cccc3ncccc23)c1-c1nn[nH]n1 [Example 530, 6-(2-Hydroxyethyl)-3-(quinolin-5-yl)-2-(2H-tetrazol-5-yl)benzenesulfonamide] |  |  |  |  |  |  |  |  | IC50 (IMP-1; [15]): 25.9 nM; Escherichia coli MITC95 [1, 16]: 3.125 µM; Klebsiella pneumoniae MITC95 [2, 17]: 4.688 µM; Serratia marcescens MITC95 [3, 18]: 0.5859 µM; IC50 (VIM-1; [19]): 0.3 nM; IC50 (NDM-1; [20]): 1.15 nM |
| NS(=O)(=O)c1c(C(F)(F)F)ccc([C@H]2CC[C@H](O)CC2)c1-c1nnn[nH]1 [Example 496] |  |  |  |  |  |  |  |  | IC50 (IMP-1; [15]): 1.09 nM; Escherichia coli MITC95 [1, 16]: 1.172 µM; Klebsiella pneumoniae MITC95 [2, 17]: 3.125 µM; Serratia marcescens MITC95 [3, 18]: 0.3906 µM; IC50 (VIM-1; [19]): 0.397 nM; IC50 (NDM-1; [20]): 0.506 nM |
| Nc1ccc(-c2ccc(CCC3CCNCC3)c(S(N)(=O)=O)c2-c2nnn[nH]2)cn1 [Example 581, 3-(6-aminopyridin-3-yl)-6-(2-(piperidin-4-yl)ethyl)-2-(1H-tetrazol-5-yl)benzenesulfonamide] |  |  |  |  |  |  |  |  | IC50 (IMP-1; [15]): 268 nM; Escherichia coli MITC95 [1, 16]: 0.3906 µM; Klebsiella pneumoniae MITC95 [2, 17]: 12.5 µM; Serratia marcescens MITC95 [3, 18]: 6.25 µM; IC50 (VIM-1; [19]): 36.8 nM; IC50 (NDM-1; [20]): 8.23 nM |
| NS(=O)(=O)c1c(CC2CCNCC2)ccc(-c2ccc(C3CCNCC3)cc2)c1-c1nn[nH]n1 [Example 456, 4′-(piperidin-4-yl)-4-(piperidin-4-ylmethyl)-2-(2H-tetrazol-5-yl)-[1,1′-biphenyl]-3-sulfonamide] |  |  | 9.79 | 0.5859 | 1.172 | 0.5859 | 3.44 | 4.58 |  |
| NS(=O)(=O)c1c(C(F)(F)F)ccc(-c2ccc(C3CN(C4CCNC4)C3)cc2)c1-c1nnn[nH]1 (stereo not drawn) [Example 801, 4′-(1-pyrrolidin-3-ylazetidin-3-yl)-2-(1H-tetrazol-5-yl)-4-(trifluoromethyl)biphenyl-3-sulfonamide] | 2.8 | 2.22 |  |  |  |  |  |  | Escherichia coli MITC95 [1, 5]: 3.125 µM; Klebsiella pneumoniae MITC95 [2, 6]: 100 µM; Serratia marcescens MITC95 [3, 7]: 6.25 µM; IC50 (VIM-1; [14]): 9.45 nM |
| CN(CCN1CCCC1)c1ccc(-c2cccc(S(N)(=O)=O)c2-c2nnn[nH]2)cn1 [Example 629, 3-[6-[methyl(2-pyrrolidin-1-ylethyl)amino]-3-pyridyl]-2-(1H-tetrazol-5-yl)benzenesulfonamide] |  |  |  |  |  |  |  |  | IC50 (IMP-1; [15]): 799 nM; Escherichia coli MITC95 [1, 16]: 4.688 µM; Klebsiella pneumoniae MITC95 [2, 17]: 100 µM; Serratia marcescens MITC95 [3, 18]: 25 µM; IC50 (VIM-1; [19]): 668 nM; IC50 (NDM-1; [20]): 43.6 nM |
| NS(=O)(=O)c1c(C(F)(F)F)ccc(-c2ccc(C3CNC3)cc2)c1-c1nn[nH]n1 [Example 433, 4′-(azetidin-3-yl)-2-(2H-tetrazol-5-yl)-4-(trifluoromethyl)-[1,1′-biphenyl]-3-sulfonamide] |  |  | 0.563 | 0.6406 | 0.7656 | 0.1875 | 0.984 | 0.875 |  |
| NS(=O)(=O)c1c(Br)ccc(-c2ccc3c(c2)CNC3)c1-c1nn[nH]n1 [Example 272, 6-bromo-3-(isoindolin-5-yl)-2-(2H-tetrazol-5-yl)benzenesulfonamide] |  |  | 49 | 0.7813 | 0.7813 | 1.563 | 5.54 | 7.17 |  |
| NS(=O)(=O)c1c(C(F)(F)F)ccc(N2CCN(CCO)CC2)c1-c1nnn[nH]1 [Example 759, 3-[4-(2-hydroxyethyl)piperazin-1-yl]-2-(1H-tetrazol-5-yl)-6-(trifluoromethyl) benzenesulfonamide] | 40.9 | 22.5 |  |  |  |  |  |  | Escherichia coli MITC95 [1, 5]: 3.125 µM; Klebsiella pneumoniae MITC95 [2, 6]: 12.5 µM; Serratia marcescens MITC95 [3, 7]: 3.125 µM; IC50 (VIM-1; [14]): 45.6 nM |
| Cc1cccn2c(-c3cccc(S(N)(=O)=O)c3-c3nnn[nH]3)cnc12 [Example 139, 3-(8-methylimidazo[1,2-a]pyridin-3-yl)-2-(1H-tetrazol-5-yl)benzenesulfonamide] | 98.4 | 0.637 |  |  |  |  |  |  | Escherichia coli expressing NDM-1 (CLB 30016) MITC95 [1]: 0.1953 µM; Klebsiella pneumoniae expressing VIM-1 (IHMA 599644) MITC95 [2]: 12.5 µM; Serratia marcescens expressing IMP-1 (CL5741) MITC95 [3]: 6.25 µM; IC50 (VIM-1; [14]): 5.78 nM |
